# Test results published in patent US20240156718A1, “TOPICAL COMPOSITION AND USE THEREOF” (BLIS TECHNOLOGIES LIMITED, priority 2021, published 2024).
# Tests used:
# M. luteus Q24 = assay: Inhibition by potential prebiotics spotted on a Q24 lawn; format: cell-based, Streptococcus salivarius; conditions: 20 μL spots, 24 hours at 37° C.; for Suitable to be used in Q24 containing serum/product?: 100% to 0.3% (oils at 100% only); for inhibitory concentration vs Blis Q24: 100% to 0.3%
# Description: CABK12 agar plates were split into segments of 6 and […] suspension of M. luteus […] raw ingredient P3. Each of the aqueous potential prebiotic substances to be screened were serially diluted in a range of concentrations from 100% to 0.3% using sterile distilled water. Oil based substances were tested at 100% only. 20 μL of each concentration, of each substance were pipetted into a spot onto one segment of the […]12 agar plate and was incubated for 24 hours at 37° C. 5% CO2 in air.
# [1] = tested on: skin commensals S. epidermidis #4, S. epidermidis E30, S. hominis ATCC 27844; assay: Prebiotic activity against skin commensals (growth); format: cell-based; conditions: FIG. 14
# Description: The same method was used as above for Blis Q24 ingredient except the suspensions with optical density of 0.125 were prepared for each of the 3 selected skin commensals.
# The skin commensals selected were: • S. epidermidis #4—Sensitive to Q24 inhibition • S. epidermidis E30—Resistant to Q24 inhibition • S. hominis ATCC 27844—Mixed resistance condition dependent
# EpiDerm tissues [2] = assay: EpiDerm safety experiment, cytokine levels day 0 and day 4; format: cell-based, human; conditions: Blis Q24 1×10^8 CFU/ml or vitamin C 50 μg/mL
# Description: Upon receipt, the final development of the immature EpiDerm (EPI-201-4D; MatTekCorporation, Ashland, MA, USA) tissues was completed following the manufacturer's instructions. In brief, the tissues were transferred from the agarose-containing gel on which they were shipped to cell culture plates containing pre-warmed differentiation medium (EPI-201-DM). They were then maintained at 37° C. in a 5% CO2 atmosphere for 4 days, with 2 or […] changes to fresh differentiation medium during that period. Finally, the fully developed EpiDerm tissues were transferred to fresh plates containing standard culture medium (EPI-100-NMM) for use in each experiment.
# (§1) The maturation of 36 immature EpiDerm tissues was performed as described above. The fully differentiated tissues were numbered from 1-36 and were randomly assigned to receive one of the treatments shown in Table 3. This was done such that each of the 6 combinations of main treatment (PBS, Q24 or vitamin C) and 0.5% SDS exposure treatment (±0.5% SDS) was randomly represented on each of five 6-well cell culture plates. The remaining 6 tissues, which were destined for histology or else to receive 5% SDS, were grouped together on the sixth cell culture plate. Following maturation, the 36 tissues were cultured in the assay medium for 24 h at 37° C. in a 5% CO2 atmosphere, after which the baseline (day 0) conditioned media samples were collected and stored frozen at −80° C. for cytokine measurement. […] The viabilities of the other 33 tissues were assessed using the MTT viability assay.
# (§2) For quantification of IL-1β, IFN-α2, IFN-γ, TNF-α, MCP-1 (CCL2), IL-6, IL-8 (CXCL8), IL-10, IL-12p70, IL-17A, 1L-18, IL-23, and IL-33, bead-based multiplex LEGENDplex™ analysis(LEGENDplex™ Human Inflammation Panel 1 (13-plea); BioLegend, San Diego, CA, USA) was used according to the manufacturer's instructions. The relevance of each of the measured cytokines is described in Table 4. […] Data were analysed via Legendplex V8.0 software (BioLegend) and specified as pg/mL.
# EpiDerm tissues [3] = assay: EpiDerm anti-inflammatory effect, cytokine release in response to 0.5% SDS; format: cell-based, human; conditions: pre-treatment, day 5 vs day 4
# Description: as §1, §2
# Blis Q24 = assay: Effect of prebiotics on the growth of Blis Q24 in M17 broth; format: cell-based, Micrococcus luteus; conditions: 5% prebiotic in M17 broth
# Description: A batch of M17 broth (Difco #218561) was made, excluding the lactose solution, by following the manufacturer's instructions. 50 ml of broth was dispensed into sterile 100 ml Schott bottles and 2.5 g (5%) of each potential prebiotic substance was added and mixed well using a magnetic stirrer and stir plate. The mixtures were autoclaved at 110° C. for 10 minutes and allowed to cool. The suspensions of the prebiotic candidates were prewarmed to 40° C. in order to allow for increased homogenisation of any oil-based components prior to dispensing into the wells. 2 ml of each suspension and an M17 only (control) were pipetted into a sterile 24 well tissue culture plate. A suspension of […] raw ingredient P3 was made in PBS and adjusted to an optical density of 0.125. 100 μl of the suspension was pipetted into each well. Once the suspension was added each well was mixed by aspirating and dispensing the solution 5 times with a 1 ml pipette. Each sample was enumerated at time points 0, 3, 6, 15, 26 and 34 hours using the following method. […] The number of colonies in each spot were then counted using an electronic colony counter and average to give the final result. […] Olive squalene was selected as one of the preferred prebiotics with 3 others that were analysed in combination with olive squalene and compared to the results of the prebiotic candidates alone (FIG. 13).
Compound,Suitable to be used in Q24 containing serum/product? (M. luteus Q24),further results
NC(=O)NC1NC(=O)NC1=O (stereo not drawn) [Allantoin],Yes,–
"CC(O)C(=O)O (stereo not drawn) [Lactic acid (LA), Lactic acid]",No,inhibitory concentration vs Blis Q24 (M. luteus Q24): > 2.5%
NC(=O)c1cccnc1 [Niacinamide],Yes,–
CC(C)=CCC/C(C)=C/CC/C(C)=C/CC/C=C(\C)CC/C=C(\C)CCC=C(C)C [Olive Squalene],Yes,growth of skin commensals compared to control media [1]: do not offer any advantage
"CC1=C(/C=C/C(C)=C/C=C/C(C)=C/CO)C(C)(C)CCC1 [Retinol (Vitamin A), Retinol]",Yes,–
"O=C(O)c1ccccc1O [Salicylic acid (SA), Salicylic acid]",No,inhibitory concentration vs Blis Q24 (M. luteus Q24): > 5%
"O=C1O[C@H]([C@@H](O)CO)C(O)=C1O [Vitamin C (Ascorbic acid), Ascorbic acid]",Yes,"IL-6 levels, day 4 vs day 0 (EpiDerm tissues [2]; daily for 4 days): slight but significant increase; IL-8 levels, day 4 vs day 0 (EpiDerm tissues [2]; daily for 4 days): unchanged; IL-18 levels, day 4 vs day 0 (EpiDerm tissues [2]; no significant differences): trend for lower values; IL-6 released in response to 0.5% SDS (EpiDerm tissues [3]): slight increase"
"Cc1c(C)c2c(c(C)c1O)CC[C@@](C)(CCC[C@H](C)CCC[C@H](C)CCCC(C)C)O2 [Vitamin E, D Alpha Tocopherol 1000IU, D Alpha Tocopherol]",Yes,–
OC[C@@H](O)[C@H](O)[C@@H](O)CO [Xylitol],Yes,growth of Q24 compared to the control (Blis Q24): detrimental to the live Q24 cell count at 24 hours
Hyaluronic acid,Yes,–
